In patent US20190151304A1, “METHODS AND PHARMACEUTICAL COMPOSITIONS FOR THE TREATMENT OF AUTOIMMUNE INFLAMMATORY” (INSERM (INSTITUT NATIONAL DE LA SANTÉ ET DE LA RECHERCJAE …, priority 2016, published 2019):
No end group written: not given here.

Tested on: EAE mice
Experiment: Chronic experimental autoimmune encephalomyelitis (EAE) induced with MOG35-55
Format: in vivo, C57BL/6 mice
Conditions: for Histopathological EAE score (spinal cord): 30 days post-immunization; for Regulatory T cell (Treg) proportion in draining lymph nodes: day 30 post-immunization, flow cytometry, versus PBS controls; for Clinical features of EAE (clinical score 0-5): orexin A 100 or 300 μg per mouse for 5 days, IP or retro-orbital, before onset or at moderate EAE score
Description: EAE was induced with 100 μg of MOG35-55 (Myelin Oligodendrocyte Glycoprotein 35-55) as previously described (Proc Natl Acad Sci USA. 106(6):2012-7, 2009) to 9 week old female C57BL/6 wild-type (WT) mice (n=10/group). Panels show clinical signs of EAE scored daily in a blinded fashion for over 30 days on a scale of 0-5 as follows: 0, no detectable clinical signs, 1, waddling gait with limp tail, 2, ataxia with full paralysis of one limb, 3, full paralysis of two limbs, 4, full paralysis of two limbs with important weight loss (>20% of initial weight) and 5, moribund or dead. Then, mice were given:
Panel A, intraperitoneally (IP) either PBS (group PBS IP), 100 μg of orexin A per mouse for 5 days on day 3 (=before the onset, group BOxA100 IP) or at a moderate EAE score (=1,5-2 for group OxA100 IP).
Panel B, intraperitoneally either PBS (group PBS), 100 μg (group OxA100 IP) or 300 μg (group OxA300 IP) of orexin A per mouse for 5 days at a moderate EAE score (=1,5-2).
Panel C, either PBS (group PBS), 300 μg of orexin A per mouse intraperitoneally (group OxA300 IP) or retro-orbitally (RO) (group OxA300 RO) for 5 days at a moderate EAE score (=1,5-2).
The EAE score is shown as mean+/−SEM. *P<0.05 (nonparametric t-test, compared to PBS group).
FIG. 5. […] 30 days post-immunization, mice (from the PBS, OxA300 RO, and OxA300 IP groups of FIG. 2, panel C) were sacrificed and spinal cords were harvested, fixed overnight in 4% paraformaldehyde and stored in 70% ethanol. Spinal cords were then embedded in paraffin and cut in […] section. After haematoxylin/eosin (to distinguish cell infiltration) and luxol fast blue (to label myelin) staining, photography was performed at ×1,25 and ×10 magnifications for the spinal cord sections of PBS, OxA300 RO and OxA300 IP mice. […] Histopathology grading was as follows: 0—normal appearance, 1—some infiltrated cells and low demyelination, 2—2 or 3 infiltrated areas and low demyelination, 3—numerous infiltrated areas and strong demyelination, 4—important cell infiltration throughout the tissue with strong demyelination. *P<0.05 (nonparametric t-test, compared to PBS group).
FIG. 6. […] It was determined 30 days after EAE induction of PBS, OxA300 RO, and OxA300 IP mice (from FIG. 2, panel C) by real time RT-qPCR as previously described (Proc Natl Acad Sci USA. 106(6):2012-7, 2009). *P<0.05 (nonparametric t-test, compared to PBS group).
FIG. 7. […] On day 30 post-immunization, draining lymph nodes were harvested from the naïve, PBS, OxA300 RO, and OxA300 IP groups (FIG. 2, panel C). Assessment by flow cytometry was performed by using the mouse regulatory T cell staining kit: lymph node Tregs were defined as […] and proliferative Tregs as CD4^+CD25^+Foxp3^+Ki67^+ cells.
Histograms represent the mean of the percentage (left) and the total number (right) of Tregs and proliferative Tregs (Ki67^+Tregs) for each group. Bars represent the mean+/−SEM of 5 individual mice. *P<0.05 (non parametric t-test, compared to PBS group).
Therefore, orexin A presents potent intrinsic anti-inflammatory properties, capable of modulating the Th/Treg homeostasis during an auto-immune response as aggressive as in a chronic EAE model.

[1] = 30 days after EAE induction, RT-qPCR, OxA 300 μg RO or IP

OxA: neuropeptide, endogenous ligand of OX1R and OX2R, with two disulphide bridges (QPLPDCCRQKTCSCRLYELLHGAGNHAAGILTL; disulfide (positions not given here); ends not checked; also: two disulphide bridges, pairing not given here; UniProt O43612 34-66, looked up)
Th1-specific (IFNγ) cytokine gene expression in the brain [1]: efficiently suppresses | Th17-specific (IL-17) cytokine gene expression in the brain [1]: efficiently suppresses | Histopathological EAE score (spinal cord) (OxA 300 μg RO or IP, listed as Orexin A): significantly decreases | Histopathological EAE score (spinal cord) (OxA 300 μg RO or IP, listed as orexin A): drastic reduction | Regulatory T cell (Treg) proportion in draining lymph nodes (listed as Orexin A): increased | Regulatory T cell (Treg) proportion in draining lymph nodes (listed as orexin A): increase | Clinical features of EAE (clinical score 0-5) (listed as Orexin A): dramatically alleviate | Clinical features of EAE (clinical score 0-5) (listed as orexin A): significantly ameliorated | Th1/Th17 pro-inflammatory responses in the CNS tissues (orexin A treated-mice versus PBS controls): drastic reduction
